Experiments:
Settings in all cases: at 10 µM
[1] = target: Glutamate receptor ionotropic, NMDA 1 (Homo sapiens) (UniProt Q05586); assay: Selectivity interaction (Eurofins CEREP Diversity Profile (receptors and ion channels)) EUB0000279b GRIN1
[2] = target: T1, Phosphatidylinositol 3-kinase C2 domain-containing subunit gamma (Homo sapiens) (UniProt O75747); assay: Selectivity interaction (KinomeScan (DiscoverX)) EUB0000655a PIK3C2G
T1 sequence (whole entry): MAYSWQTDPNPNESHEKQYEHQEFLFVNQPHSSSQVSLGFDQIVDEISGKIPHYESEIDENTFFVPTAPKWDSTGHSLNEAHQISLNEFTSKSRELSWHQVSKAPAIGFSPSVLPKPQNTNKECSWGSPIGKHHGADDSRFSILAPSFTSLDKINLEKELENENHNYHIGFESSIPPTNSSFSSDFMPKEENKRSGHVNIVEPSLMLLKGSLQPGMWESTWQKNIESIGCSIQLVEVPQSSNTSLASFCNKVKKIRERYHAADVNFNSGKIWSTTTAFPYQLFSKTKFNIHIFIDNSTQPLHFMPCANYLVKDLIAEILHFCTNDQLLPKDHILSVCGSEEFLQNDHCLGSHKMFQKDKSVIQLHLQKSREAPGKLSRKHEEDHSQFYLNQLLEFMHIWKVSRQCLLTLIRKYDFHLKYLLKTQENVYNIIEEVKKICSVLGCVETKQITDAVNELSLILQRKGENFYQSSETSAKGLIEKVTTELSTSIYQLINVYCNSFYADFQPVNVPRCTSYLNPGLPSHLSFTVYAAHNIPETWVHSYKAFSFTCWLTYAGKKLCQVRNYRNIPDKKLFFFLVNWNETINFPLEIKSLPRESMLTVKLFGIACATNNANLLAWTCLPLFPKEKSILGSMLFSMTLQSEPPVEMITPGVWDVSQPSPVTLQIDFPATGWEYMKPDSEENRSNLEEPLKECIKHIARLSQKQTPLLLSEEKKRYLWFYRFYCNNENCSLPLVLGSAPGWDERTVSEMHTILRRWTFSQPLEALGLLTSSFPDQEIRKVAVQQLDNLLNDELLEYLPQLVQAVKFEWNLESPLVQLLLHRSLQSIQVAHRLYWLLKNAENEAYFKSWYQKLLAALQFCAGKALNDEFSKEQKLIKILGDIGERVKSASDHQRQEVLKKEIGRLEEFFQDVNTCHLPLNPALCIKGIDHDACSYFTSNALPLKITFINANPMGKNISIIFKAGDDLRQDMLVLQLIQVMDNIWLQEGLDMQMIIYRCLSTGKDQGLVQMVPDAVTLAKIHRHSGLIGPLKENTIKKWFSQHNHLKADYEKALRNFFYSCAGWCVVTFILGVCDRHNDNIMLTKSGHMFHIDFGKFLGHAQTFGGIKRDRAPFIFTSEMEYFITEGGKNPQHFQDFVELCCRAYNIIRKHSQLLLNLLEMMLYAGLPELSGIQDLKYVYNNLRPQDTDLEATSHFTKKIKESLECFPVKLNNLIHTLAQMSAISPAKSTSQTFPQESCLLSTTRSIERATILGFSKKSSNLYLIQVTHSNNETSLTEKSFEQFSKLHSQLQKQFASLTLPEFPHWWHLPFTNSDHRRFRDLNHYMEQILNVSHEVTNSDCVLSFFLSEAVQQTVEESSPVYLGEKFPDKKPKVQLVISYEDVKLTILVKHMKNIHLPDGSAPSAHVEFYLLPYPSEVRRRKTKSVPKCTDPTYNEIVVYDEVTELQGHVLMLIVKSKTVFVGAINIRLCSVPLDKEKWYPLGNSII

[3] = target: T2, Serine/threonine-protein kinase TAO2 (Homo sapiens) (UniProt Q9UL54); assay: Selectivity interaction (KinomeScan (DiscoverX)) EUB0000655a TAOK2
T2 sequence (whole entry): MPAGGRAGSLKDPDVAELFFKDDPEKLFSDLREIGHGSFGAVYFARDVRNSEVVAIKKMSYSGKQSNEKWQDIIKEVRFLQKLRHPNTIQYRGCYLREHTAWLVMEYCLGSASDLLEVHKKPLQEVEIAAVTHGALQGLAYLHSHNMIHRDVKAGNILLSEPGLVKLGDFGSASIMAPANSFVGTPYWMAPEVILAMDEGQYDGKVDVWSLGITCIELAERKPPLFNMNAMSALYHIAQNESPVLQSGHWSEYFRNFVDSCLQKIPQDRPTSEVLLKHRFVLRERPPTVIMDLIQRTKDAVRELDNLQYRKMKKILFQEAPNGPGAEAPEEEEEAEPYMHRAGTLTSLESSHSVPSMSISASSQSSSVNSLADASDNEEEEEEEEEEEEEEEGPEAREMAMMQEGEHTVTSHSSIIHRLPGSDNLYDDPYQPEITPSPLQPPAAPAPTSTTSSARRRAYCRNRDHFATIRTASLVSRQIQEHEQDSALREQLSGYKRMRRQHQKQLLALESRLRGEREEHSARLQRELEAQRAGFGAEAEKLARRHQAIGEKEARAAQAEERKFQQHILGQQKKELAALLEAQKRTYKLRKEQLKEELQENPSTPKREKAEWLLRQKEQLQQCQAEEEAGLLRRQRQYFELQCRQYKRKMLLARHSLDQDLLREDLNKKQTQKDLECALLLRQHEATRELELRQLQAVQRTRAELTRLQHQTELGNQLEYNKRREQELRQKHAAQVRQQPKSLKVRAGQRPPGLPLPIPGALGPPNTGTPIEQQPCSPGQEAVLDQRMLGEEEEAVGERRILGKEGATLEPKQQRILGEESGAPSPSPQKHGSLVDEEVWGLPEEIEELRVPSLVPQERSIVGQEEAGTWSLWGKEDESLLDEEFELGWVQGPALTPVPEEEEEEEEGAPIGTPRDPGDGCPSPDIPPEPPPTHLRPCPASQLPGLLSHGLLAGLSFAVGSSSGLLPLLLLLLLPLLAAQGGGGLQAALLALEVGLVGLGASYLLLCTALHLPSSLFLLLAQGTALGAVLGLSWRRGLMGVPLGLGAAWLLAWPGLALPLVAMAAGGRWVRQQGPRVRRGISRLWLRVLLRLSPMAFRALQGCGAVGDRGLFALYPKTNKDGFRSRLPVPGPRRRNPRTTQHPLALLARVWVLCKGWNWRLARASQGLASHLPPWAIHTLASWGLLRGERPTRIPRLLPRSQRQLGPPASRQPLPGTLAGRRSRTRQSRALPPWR

Compound | % of control [1] [%] | % of control [2] [%] | % of control [3] [%]
CC(=O)c1cc(-c2ccccc2OCC2CC2)c2ncccn12 | 106 | – | –
CN(C)CCOc1ccc(-c2nc(-c3ccncc3)c(-c3ccc4c(c3)CC/C4=N\O)[nH]2)cc1 | – | 55 | 65
